The numbers were not newly measured in paper PMC10135567, “New Indole-3-Propionic Acid and 5-Methoxy-Indole Carboxylic Acid Derived Hydrazone Hybrids as Multifunctional Neuroprotectors” (Antioxidants, 2023), which cites them from elsewhere.

SMILES strings stand for the structures.

This data set concerns SH-SY5Y cells and isolated rat-brain synaptosomes. Set-up: method as in PMID 35624746. The note with it: SH-SY5Y cells and rat-brain synaptosomes under toxic agents of oxidative stress; cited from earlier work.

Consider `O=C(CCn1c(=S)n(CCC(=O)N/N=C/c2cccc(O)c2O)c2ccccc21)N/N=C/c1cccc(O)c1O` [VIII], for which the “cellular and synaptosomal viability restored” value is listed as “up to 80%”.
